The subject of data set [1] is infarct size in the heart. The settings on record: rabbits, cited from earlier work.
The test system of the next data set is colitis. The settings on record: rats, colitis by intraluminal trinitrobenzene sulfonic acid in 50% ethanol; cited from earlier work.
The target of data set [2] is T1, PARP-1 enzyme (Homo sapiens, UniProt P09874).
T1 construct: made in house
The data set is described as follows: In vitro Scintillation Proximity Assay (SPA) for PARP-1 inhibitory activity. The class given is biochemical. The settings on record: nicked DNA activated PARP-1, [3H]-NAD+, biotinylated histones; read-out: In vitro SPA pIC50 (converted). The method in brief:
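Human PARP-1 (5–10 μg/ml), activated by nicked DNA (2 μg/ml), ADP-ribosylated biotinylated histones (2 μg/ml) using [3H]-NAD+ as donor for 15 min at room temperature in Tris pH 8/DTT/MgCl2. The reaction was stopped with NAD+ (2 mM final) and read by SPA scintillation counting. IC50 was interpolated from blank-corrected % of control and reported as pIC50.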
(In general: Scintillation proximity formats need no separation of bound from free tracer.)

The target of data set [3] is T1, PARP-1 enzyme. The data set can be described thus: In vitro filtration assay for PARP-1 inhibitory activity. In kind it is biochemical. The note with it: nicked DNA activated PARP-1, [32P]-NAD, histones; read-out: In vitro filtration assay pIC50 (converted). As to the method:
Compounds of the present invention were tested in an in vitro filtration assay assessing PARP-1 activity (triggered in the presence of nicked DNA) by means of its histone poly (ADP-ribosyl)ation activity using [^32P]-NAD as ADP-ribosyl donor. The radioactive ribosylated histones were precipitated by trichloroacetic acid (TCA) in 96-well filterplates and the incorporated [^32P] measured using a scintillation counter
A mixture of histones (stock solution: 5 mg/ml in H2O), NAD (stock solution: 100 mM in H2O), and [^32P]-NAD^+ in incubation buffer (50 mM Tris/HCl, pH 8; 0.2 mM DTT; 4 mM MgCl2) was made. A mixture of the PARP-1 enzyme (5-10 μg/ml) and nicked DNA was also made. The nicked DNA was prepared as described in the in vitro SPA for PARP-1 inhibitory activity. Seventy-five μl of the PARP-1 enzyme/DNA mixture together with 1 μl of compound in DMSO and 25 μl of histones-NAD^+/[^32P]-NAD^+ mixture was added per well of a 96-well filterplate (0.45 μm, supplier Millipore). The final concentrations in the incubation mixture were 2 μg/ml for the histones, 0.1 mM for the NAD^+, […] (0.5 μC) for the [^32P]-NAD^+ and 2 μg/ml for the nicked DNA. Plates were incubated for 15 min. at room temperature and the reaction was terminated by the addition of 10 μl ice cold 100% TCA followed by the addition of 10 μl ice-cold BSA solution (1% in H2O). The protein fraction was allowed to precipitate for 10 min. at 4° C. and plates were vacuum filtered. The plates were subsequently washed with, for each well, 1 ml of 10% ice cold TCA, 1 ml of 5% ice cold TCA and 1 ml of 5% TCA at room temperature. Finally 100 μl of scintillation solution (Microscint 40, Packard) was added to each well and the plates were transferred to a TopCountNXT™ (supplier: Packard) for scintillation counting and values were expressed as counts per minute (cpm). For each experiment, controls (containing PARP-1 enzyme and DMSO without compound), a blank incubation (containing DMSO but no PARP-1 enzyme or compound) and samples (containing PARP-1 enzyme and compound dissolved in DMSO) were run in parallel. All compounds tested were dissolved and eventually further diluted in DMSO. In first instance, compounds were tested at a concentration of 10^−5M. […] In each test, the blank value was subtracted from both the control and the sample values. The control sample represented maximal PARP-1 enzyme activity. For each sample, the amount of cpm was expressed as a percentage of the mean cpm value of the controls. When appropriate, IC50-values (concentration of the drug, needed to reduce the PARP-1 enzyme activity to 50% of the control) were computed using linear interpolation between the experimental points just above and below the 50% level. Herein the effects of test compounds are expressed as pIC50 (the negative log value of the IC50-value). As a reference compound, 4-amino-1,8-naphthalimide was included to validate the filtration assay.

A value given as a limit tells only on which side of the number the result lay.

T1 sequence (P09874 whole entry): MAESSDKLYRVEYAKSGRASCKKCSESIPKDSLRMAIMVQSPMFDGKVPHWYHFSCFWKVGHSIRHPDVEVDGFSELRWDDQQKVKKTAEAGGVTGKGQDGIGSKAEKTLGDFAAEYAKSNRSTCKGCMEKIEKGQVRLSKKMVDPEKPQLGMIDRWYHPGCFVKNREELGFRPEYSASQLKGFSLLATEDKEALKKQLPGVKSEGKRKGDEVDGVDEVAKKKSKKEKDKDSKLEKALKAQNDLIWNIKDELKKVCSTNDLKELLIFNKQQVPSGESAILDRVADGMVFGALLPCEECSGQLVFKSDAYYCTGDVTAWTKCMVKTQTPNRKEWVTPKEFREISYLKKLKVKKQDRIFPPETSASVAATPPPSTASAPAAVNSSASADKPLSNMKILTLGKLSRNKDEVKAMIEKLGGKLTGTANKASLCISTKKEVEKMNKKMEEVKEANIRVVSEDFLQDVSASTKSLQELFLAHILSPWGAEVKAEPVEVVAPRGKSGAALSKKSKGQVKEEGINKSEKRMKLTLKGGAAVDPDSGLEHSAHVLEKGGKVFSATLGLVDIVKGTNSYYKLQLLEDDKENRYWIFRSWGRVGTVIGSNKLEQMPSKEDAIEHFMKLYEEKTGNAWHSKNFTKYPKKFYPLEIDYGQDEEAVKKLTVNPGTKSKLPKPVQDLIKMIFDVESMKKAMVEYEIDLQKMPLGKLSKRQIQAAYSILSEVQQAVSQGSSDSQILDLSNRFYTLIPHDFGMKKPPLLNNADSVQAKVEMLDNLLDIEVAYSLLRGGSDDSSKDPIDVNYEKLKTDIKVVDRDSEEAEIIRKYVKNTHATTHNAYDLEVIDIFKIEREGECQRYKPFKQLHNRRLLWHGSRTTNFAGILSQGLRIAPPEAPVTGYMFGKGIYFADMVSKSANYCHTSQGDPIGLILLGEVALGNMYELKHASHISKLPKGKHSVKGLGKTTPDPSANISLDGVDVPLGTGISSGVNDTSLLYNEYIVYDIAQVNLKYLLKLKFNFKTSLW

Broadly, the melting point is the temperature of the solid-liquid transition. For `Cc1cc2cc(C(c3ccccc3)c3cncn3C)ccc2[nH]c1=O` (stereo not shown) (hydrate or solvate) [Compound 10], the melting point came to 240 °C.

For the molecule `CCc1cc2cc([C@@H](CCN3CCCCC3)c3ccc4c(c3)OCCO4)ccc2[nH]c1=O` (single isomer, unassigned) [Compound 144], the melting point amounted to 159 °C.

For the molecule `CCc1cc2cc([C@H](CCN3CCCCC3)c3ccc4c(c3)OCCO4)ccc2[nH]c1=O` (single isomer, unassigned) [Compound 145], the melting point was determined as 172 °C.

`Oc1cccc2c(O)nccc12` [1,5-dihydroxyisoquinoline]: the “reduction in infarct size” value in data set [1] (single injection 1 mg/kg) was 38-48%.

With `NC(=O)c1cccc(N)c1` [3-amino-benzamide], the “effect on inflammatory response, morphology and energetic status of the distal colon” value with colitis is “reduced the inflammatory response and restored the morphology and the energetic status of the distal colon”. Besides, the “reduction in infarct size in the heart” value in data set [1] (single injection 10 mg/kg, one minute before occlusion or one minute before reperfusion) is listed as 32-42%.

As for `CNC(c1ccccc1)c1ccc2[nH]c(=O)c(C)cc2c1` (stereo not shown) [Compound 1], the melting point is 174.3 °C. The IC50 at PARP-1 enzyme [2] is 285 nM. The IC50 on PARP-1 enzyme [3] was 2.33 µM.

For `CCc1cc2cc(C(=O)c3ccc4c(c3)OCCO4)ccc2[nH]c1=O` [Compound 2], the melting point worked out at 255 °C. Further, the IC50 on PARP-1 enzyme [2] is 735 nM.

`CCc1cc2cc(C(OC(C)=O)c3ccccc3)ccc2[nH]c1=O` (stereo not shown) [Compound 3]: the melting point turned out to be 168.2 °C. Also, the IC50 at PARP-1 enzyme [2] was 407 nM. Also, on PARP-1 enzyme [3], the IC50 was 4.34 µM.

On to `Cc1cc2cc(C(C#N)c3ccccc3)ccc2[nH]c1=O` (stereo not shown) [Compound 4], for which the melting point came to 227.5 °C. Further, the IC50 at PARP-1 enzyme [2] is 435 nM. The IC50 at PARP-1 enzyme [3] was 2.67 µM.

Molecule `Cc1cc2cc(C(c3ccccc3)n3cncn3)ccc2[nH]c1=O` (stereo not shown) [Compound 5] returned a melting point of 254.2 °C. For the same molecule, at PARP-1 enzyme [2], the IC50 was 1400 nM. In addition, the IC50 at PARP-1 enzyme [3] was 9.44 µM.

In the case of `Cc1cc2cc(C(c3ccccc3)N(C)C)ccc2[nH]c1=O` (stereo not shown) [Compound 6], the melting point worked out at 226.7 °C. The IC50 at PARP-1 enzyme [2] was 957 nM. Also, the IC50 at PARP-1 enzyme [3] is 3.94 µM.

`CC(=O)NCC(c1ccccc1)c1ccc2[nH]c(=O)c(C)cc2c1` (stereo not shown) [Compound 8] came in with a melting point of 206.2 °C. Besides, on PARP-1 enzyme [2], the IC50 is 213 nM. On PARP-1 enzyme [3], the IC50 is 2.54 µM.

Take `COC(c1ccccc1)c1ccc2[nH]c(=O)c(C)cc2c1` (stereo not shown) [Compound 9]: the melting point is 207.3 °C. Also, the IC50 at PARP-1 enzyme [2] was 1800 nM. Besides, on PARP-1 enzyme [3], the IC50 was 9.4 µM.

With `COCCNC1CCN(C(c2ccc3c(c2)OCCO3)c2ccc3[nH]c(=O)c4ccccc4c3c2)CC1` (stereo not shown) [Compound 11], the melting point came out at 116 °C. The IC50 on PARP-1 enzyme [2] is 7.29 nM.

As to `CCc1cc2cc(C(O)c3ccc4c(c3)OCO4)ccc2[nH]c1=O` (stereo not shown) [Compound 12], the melting point stood at 211 °C. The IC50 at PARP-1 enzyme [2] is 40.1 nM.

Take `CCc1cc2cc(C(c3ccc4c(c3)OCCO4)C3CCN(C/C=C/c4ccccc4)CC3)ccc2[nH]c1=O` (stereo not shown) [Compound 14]: the melting point is 107 °C. For the same molecule, on PARP-1 enzyme [2], the IC50 was 97.1 nM.

`CCc1cc2cc(C(CCN3CCCCC3)c3ccc4c(c3)OCCO4)ccc2[nH]c1=O` (stereo not shown) [Compound 16] yielded a melting point of 181 °C. At PARP-1 enzyme [2], the IC50 was 9.2 nM.

`CCc1cc2cc(C(c3ccccc3)n3ccnc3)ccc2[nH]c1=O` (stereo not shown) [Compound 17] yielded a melting point of 220.1 °C. Further, at PARP-1 enzyme [2], the IC50 is 152 nM. Besides, the IC50 on PARP-1 enzyme [3] was 0.619 µM.

For the molecule `CCc1cc2cc(C(NC=O)c3ccc4c(c3)OCCO4)ccc2[nH]c1=O` (stereo not shown) [Compound 18], the melting point is over 260 °C. Further, the IC50 at PARP-1 enzyme [2] is 19.5 nM.

Turning to `CCc1nc2cc(CC(O)c3ccc(Cl)cc3)ccc2[nH]c1=O` (stereo not shown) [Compound 19], the melting point was determined as 204 °C. Also, the IC50 at PARP-1 enzyme [2] is 256 nM.

On to `CCc1nc2cc(CC(c3ccc(Cl)cc3)n3ccnc3)ccc2[nH]c1=O` (stereo not shown) [Compound 20], for which the melting point is 270 °C. Further, at PARP-1 enzyme [2], the IC50 was 275 nM. The IC50 on PARP-1 enzyme [3] was 1.75 µM.

With `CCc1nc2cc(CC(c3ccc(Cl)cc3)N3CCCC3)ccc2[nH]c1=O` (stereo not shown) [Compound 21], the melting point was determined as 194 °C. In addition, the IC50 on PARP-1 enzyme [2] is 191 nM.

As for `CCc1nc2cc(C(c3ccc(Cl)cc3)n3cncn3)ccc2[nH]c1=O` (stereo not shown) [Compound 22], the melting point amounted to 188 °C. Also, the IC50 on PARP-1 enzyme [2] was 366 nM. In addition, the IC50 on PARP-1 enzyme [3] is 4.05 µM.

Turning to `CCc1nc2cc(C(c3ccccc3)n3ccnc3)ccc2[nH]c1=O` (stereo not shown) [Compound 127, 3-ethyl-6-(1H-imidazol-1-ylphenylmethyl)-2(1H)-quinoxalinone], the IC50 at PARP-1 enzyme [2] was 1110 nM; at PARP-1 enzyme [3], 3.66 µM.

On to `COc1ccc(C(c2ccc3[nH]c(=O)c(C)nc3c2)n2ccnc2)cc1` (stereo not shown) [Compound 128, 6-[(1H-imidazol-1-yl)(4-methoxyphenyl)methyl]-3-methyl-2(1H)-quinoxalinone], for which the IC50 was 361 nM at PARP-1 enzyme [2] and 2.3 µM on PARP-1 enzyme [3].

In turn, `CCc1cc2cc(C(=C3CCNCC3)c3ccc4c(c3)OCCO4)ccc2[nH]c1=O` [Compound 131] had a melting point of 249 °C. The IC50 at PARP-1 enzyme [2] is 27.7 nM.

`CCc1cc2cc(C(=C3CCN(CCc4ccc(OC)cc4)CC3)c3ccc4c(c3)OCCO4)ccc2[nH]c1=O` [Compound 132]: the melting point is 203 °C. In addition, at PARP-1 enzyme [2], the IC50 is 57.1 nM.

In turn, `CCc1cc2cc(C(=C3CCN(CC(O)COc4ccc(OC)cc4)CC3)c3ccc4c(c3)OCCO4)ccc2[nH]c1=O` (stereo not shown) [Compound 133] displayed a melting point of 219 °C. Further, the IC50 on PARP-1 enzyme [2] was 124 nM.

With `Cc1cc2cc(/C(=C3\CCCN(C)C3)c3ccccc3)ccc2[nH]c1=O` [Compound 134], the IC50 on PARP-1 enzyme [2] was 299 nM; on PARP-1 enzyme [3] it was 1.56 µM.

Consider `Cc1cc2cc(/C(=C/CN(C)C)c3cccc4[nH]c(=O)c(C)cc34)ccc2[nH]c1=O` [Compound 135], for which the IC50 is 794 nM at PARP-1 enzyme [2] and 4.18 µM at PARP-1 enzyme [3].

Take `CCc1cc2cc(/C(=C/CN(C)C)c3ccccc3)ccc2[nH]c1=O` [Compound 139]: the IC50 at PARP-1 enzyme [2] is 668 nM; at PARP-1 enzyme [3], 4.12 µM.

For the molecule `CCc1cc2cc(/C(=C\CN(C)C)c3ccccc3)ccc2[nH]c1=O` [Compound 140], the results for the IC50 on PARP-1 enzyme [2] and at PARP-1 enzyme [3] were 431 nM and 2.15 µM, respectively.

These data come from patent US8071612B2, “6-alkenyl and 6-phenylalkyl substituted 2-quinolinones and 2-quinoxalinones as poly(ADP-ribose) polymerase inhibitors” (Janssen Pharmaceutica, NV, priority 2004, dated 2011).
